Numbered stars: 1 amine (or outer) side, 2 acyl side, 3 side chain; on linkers, the order of the positions; unused ones are H or OH. Bridge positions count the residues as written; N and C are the ends. Square brackets hold non-standard residues; d marks the D form. Peptide text beside a SMILES is read from it. * marks the point of attachment. ξ: configuration not given here. Phe(4-COOH) = N[C@@H](Cc1ccc(C(=O)O)cc1)C(=O)O; Bip = N[C@@H](Cc1ccc(-c2ccccc2)cc1)C(=O)O; NH(CH2)14COOH = O=C(O)CCCCCCCCCCCCCCN*; Phe(3-Me) = Cc1cccc(C[C@H](N)C(=O)O)c1; γGlu = O=C(O)[C@H](CCC(=O)[*:2])N[*:1]; NMeAEEA = CN(CCOCCOCC(=O)[*:2])[*:1]; Val(3-OH) = CC(C)(O)[C@H](N)C(=O)O; hArg = N=C(N)NCCCC[C@H](N)C(=O)O; Cha = N[C@@H](CC1CCCCC1)C(=O)O; Cit = NC(=O)NCCC[C@H](N)C(=O)O; aThr = C[C@H](O)[C@H](N)C(=O)O; Thr(3ξ) = CC(O)[C@H](N)C(=O)O; 12Ado = NCCCCCCCCCCCC(=O)O; Carboxymethyl = O=C(O)C*; Orn = NCCC[C@H](N)C(=O)O; Aun = NCCCCCCCCCCC(=O)O; Dab = NCC[C@H](N)C(=O)O; Abu = CC[C@H](N)C(=O)O; Dap = NC[C@H](N)C(=O)O; AEEA = NCCOCCOCC(=O)O
These compounds were tested against T1, PD-1/PD-L1 interaction (PE-labeled human PD-L1-Ig binding to Jurkat cell line over-expressing human PD-1) (Homo sapiens, UniProt Q15116) (assay: Jurkat-PD-1 Cell Binding High-Content Screening Assay (CBA)). Conditions: Jurkat cell line over-expressing human PD-1; PE-labeled PD-L1-Ig 20 nM final; read-out: Jurkat hPD1-PDL1 IC50.
T1 construct: expressed in transfected cells; host or cells: Jurkat
Format: cell-based
Method in brief: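 Binding of fluorescent PD-L1-Ig (phycoerythrin on Ig tag, 20 nM final, 1 h) measured by high-content imaging of fixed, Hoechst-counterstained Jurkat-hPD-1 cells. Compound added 2 h at 37° C beforehand, in DMEM with 10% fetal calf serum.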

T1 sequence (Q15116 25-288): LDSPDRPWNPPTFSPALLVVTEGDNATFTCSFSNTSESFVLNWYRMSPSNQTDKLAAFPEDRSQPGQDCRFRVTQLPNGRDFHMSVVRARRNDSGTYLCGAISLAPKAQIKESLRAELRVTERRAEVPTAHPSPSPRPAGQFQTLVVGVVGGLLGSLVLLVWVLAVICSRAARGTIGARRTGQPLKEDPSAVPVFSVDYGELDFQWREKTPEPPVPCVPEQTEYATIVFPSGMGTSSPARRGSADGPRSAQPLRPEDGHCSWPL

| Structure (SMILES) | IC50 |
| --- | --- |
| CC(C)C[C@@H]1NC(=O)[C@H](Cc2c[nH]c3ccccc23)NC(=O)[C@H](CC(=O)O)NC(=O)[C@H](Cc2ccc(C(=O)O)cc2)NC(=O)[C@H](CCCCNC(=N)N)NC(=O)CSC[C@@H](C(=O)N[C@@H](C)C(=O)N[C@@H](CCN)C(=O)NCCCCCCCCCCCCCCC(=O)O)NC(=O)[C@H](CO)NC(=O)[C@H](C(C)C)NC(=O)[C@H](CC2CCCCC2)NC(=O)[C@H](Cc2c[nH]cn2)NC(=O)[C@@H](CC(C)C)NC(=O)[C@H](CCCN)NC(=O)[C@H](C(C)C)NC(=O)[C@H](Cc2ccc(-c3ccccc3)cc2)NC1=O [Compound 3019] ({CH2CO}-[hArg][Phe(4-COOH)]DWL[Bip]V[Orn][dL]H[Cha]VSCA[Dab]-{NH(CH2)14COOH}; thioether N-14) | 336 nM |
| CC[C@H](C)[C@@H]1NC(=O)[C@H](Cc2ccc(-c3ccccc3)cc2)NC(=O)[C@H](C(C)C)NC(=O)[C@H](Cc2cccc(C)c2)NC(=O)[C@H](CC(=O)O)NC(=O)[C@H](Cc2ccc(C(=O)O)cc2)NC(=O)[C@H](Cc2ccncc2)NC(=O)CSC[C@@H](C(=O)N[C@@H](CCCCN)C(=O)NCCCCCCCCCCC(=O)O)NC(=O)[C@H]([C@@H](C)O)NC(=O)[C@H](C(C)C)NC(=O)[C@H](CC2CCCCC2)NC(=O)[C@H](CCN)NC(=O)[C@@H](CC(C)C)NC(=O)[C@H](CCCN)NC1=O [Compound 1185] | 44.2 nM |
| Cc1cccc(C[C@@H]2NC(=O)[C@H](CC(=O)O)NC(=O)[C@H](Cc3ccc(OCC(=O)O)cc3)NC(=O)[C@H](Cc3ccc(OCC(=O)O)cc3)NC(=O)CSC[C@@H](C(=O)NCC(=O)N[C@@H](CCCCN)C(=O)NCC(=O)NCCCCCCCCCCC(=O)O)NC(=O)[C@H](CO)NC(=O)[C@H](C(C)C)NC(=O)[C@H](CC3CCCCC3)NC(=O)[C@H](CCN)NC(=O)[C@@H](CC(C)C)NC(=O)[C@H](CCCN)NC(=O)[C@H](C(C)C)NC(=O)[C@H](Cc3ccc(-c4ccccc4)cc3)NC(=O)[C@H](CC(C)C)NC2=O)c1 [Compound 1073] ({CH2CO}-Y(Carboxymethyl)Y(Carboxymethyl)D[Phe(3-Me)]L[Bip]V[Orn][dL][Dab][Cha]VSCGKG[Aun]-OH; thioether N-14) | 15.2 nM |
| Cc1cccc(C[C@@H]2NC(=O)[C@H](CC(=O)O)NC(=O)[C@H](Cc3ccc(OCC(=O)O)cc3)NC(=O)[C@H](CN)NC(=O)CSC[C@@H](C(=O)N[C@@H](CO)C(=O)N[C@@H](CO)C(=O)NCCCCCCCCCCC(=O)O)NC(=O)[C@H]([C@@H](C)O)NC(=O)[C@H](C(C)C)NC(=O)[C@H](CC3CCCCC3)NC(=O)[C@H](CCN)NC(=O)[C@@H](CC(C)C)NC(=O)[C@H](CCCN)NC(=O)[C@H](CCCNC(N)=O)NC(=O)[C@H](Cc3ccc(-c4ccccc4)cc3)NC(=O)[C@H](C(C)C)NC2=O)c1 [Compound 2852] ({CH2CO}-[Dap]Y(Carboxymethyl)D[Phe(3-Me)]V[Bip][Cit][Orn][dL][Dab][Cha]VTCSS[Aun]-OH; thioether N-14) | 21 nM |
| Cc1cccc(C[C@@H]2NC(=O)[C@H](CC(=O)O)NC(=O)[C@H](Cc3ccc(OCC(=O)O)cc3)NC(=O)[C@H](CN)NC(=O)CSC[C@@H](C(=O)N[C@@H](CCN)C(=O)N[C@@H](CO)C(=O)NCCCCCCCCCCCC(=O)O)NC(=O)[C@H](CCCN)NC(=O)[C@H](C(C)C)NC(=O)[C@H](CC3CCCCC3)NC(=O)[C@H](CCN)NC(=O)[C@@H](CC(C)C)NC(=O)[C@H](CCCN)NC(=O)[C@H](Cc3ccc(O)cc3)NC(=O)[C@H](Cc3ccc(-c4ccccc4)cc3)NC(=O)[C@H](C(C)C)NC2=O)c1 [Compound 3588] ({CH2CO}-[Dap]Y(Carboxymethyl)D[Phe(3-Me)]V[Bip]Y[Orn][dL][Dab][Cha]V[Orn]C[Dab]S[12Ado]-OH; thioether N-14) | 16.7 nM |
| Cc1cccc(C[C@@H]2NC(=O)[C@H](CC(=O)O)NC(=O)[C@H](Cc3ccc(OCC(=O)O)cc3)NC(=O)[C@H](C(C)O)NC(=O)CSC[C@@H](C(=O)N(C)CCOCCOCC(=O)NCCCCCCCCCCC(=O)O)NC(=O)[C@H](CCCN)NC(=O)[C@H](C(C)C)NC(=O)[C@H](CC3CCCCC3)NC(=O)[C@H](CCN)NC(=O)[C@@H](CC(C)C)NC(=O)[C@H](CCN)NC(=O)[C@H](C(C)C)NC(=O)[C@H](Cc3ccc(-c4ccccc4)cc3)NC(=O)[C@H](C(C)C)NC2=O)c1 (stereo partly drawn) [Compound 3353] ({CH2CO}-[Thr(3ξ)]Y(Carboxymethyl)D[Phe(3-Me)]V[Bip]V[Dab][dL][Dab][Cha]V[Orn]C[NMeAEEA][Aun]-OH; thioether N-14) | 140 nM |
| CC[C@H](C)[C@@H]1NC(=O)[C@H](Cc2ccc(-c3ccccc3)cc2)NC(=O)[C@H](C(C)C)NC(=O)[C@H](Cc2cccc(C)c2)NC(=O)[C@H](CC(=O)O)NC(=O)[C@H](Cc2ccc(OCC(=O)O)cc2)NC(=O)[C@H](CN)NC(=O)CSC[C@@H](C(=O)NCCOCCOCC(=O)N[C@@H](CCN)C(=O)NCCCCCCCCCCC(=O)O)NC(=O)[C@H](CN)NC(=O)[C@H](C(C)C)NC(=O)[C@H](CC2CCCCC2)NC(=O)[C@H](CCN)NC(=O)[C@@H](CC(C)C)NC(=O)[C@H](CCCN)NC1=O [Compound 2628] ({CH2CO}-[Dap]Y(Carboxymethyl)D[Phe(3-Me)]V[Bip]I[Orn][dL][Dab][Cha]V[Dap]C[AEEA][Dab][Aun]-OH; thioether N-14) | 15.1 nM |
| Cc1cccc(C[C@@H]2NC(=O)[C@H](CC(=O)O)NC(=O)[C@H](Cc3ccc(OCC(=O)O)cc3)NC(=O)[C@H](CCCCN)NC(=O)CSC[C@@H](C(=O)N[C@@H](CCN)C(=O)NCCCCCCCCCCC(=O)O)NC(=O)[C@H]([C@@H](C)O)NC(=O)[C@H](C(C)C)NC(=O)[C@H](CC3CCCCC3)NC(=O)[C@H](CCN)NC(=O)[C@@H](CC(C)C)NC(=O)[C@H](CCCN)NC(=O)[C@H](CCCNC(N)=O)NC(=O)[C@H](Cc3ccc(-c4ccccc4)cc3)NC(=O)[C@H](C(C)C)NC2=O)c1 [Compound 2823] ({CH2CO}-KY(Carboxymethyl)D[Phe(3-Me)]V[Bip][Cit][Orn][dL][Dab][Cha]VTC[Dab][Aun]-OH; thioether N-14) | 16.4 nM |
| Cc1cccc(C[C@@H]2NC(=O)[C@H](CC(=O)O)NC(=O)[C@H](Cc3ccc(OCC(=O)O)cc3)NC(=O)[C@H](CCCNC(=N)N)NC(=O)CSC[C@@H](C(=O)N[C@@H](CCCCN)C(=O)N[C@@H](CO)C(=O)NCCCCCCCCCCCC(=O)O)NC(=O)[C@H](CN)NC(=O)[C@H](C(C)C)NC(=O)[C@H](CC3CCCCC3)NC(=O)[C@H](CCN)NC(=O)[C@@H](CC(C)C)NC(=O)[C@H](CCCN)NC(=O)[C@H](C(C)C)NC(=O)[C@H](Cc3ccc(-c4ccccc4)cc3)NC(=O)[C@H](C(C)C)NC2=O)c1 [Compound 3535] ({CH2CO}-RY(Carboxymethyl)D[Phe(3-Me)]V[Bip]V[Orn][dL][Dab][Cha]V[Dap]CKS[12Ado]-OH; thioether N-14) | 13.4 nM |

These reach a lower IC50. Values come first.

| IC50 | Structure (SMILES) |
| --- | --- |
| 12.5 nM | Cc1cccc(C[C@@H]2NC(=O)[C@H](CC(=O)O)NC(=O)[C@H](Cc3ccc(OCC(=O)O)cc3)NC(=O)[C@H]([C@H](C)O)NC(=O)CSC[C@@H](C(=O)N[C@@H](CCN)C(=O)NCCCCCCCCCCC(=O)O)NC(=O)[C@H](CO)NC(=O)[C@H](C(C)(C)O)NC(=O)[C@H](CC3CCCCC3)NC(=O)[C@H](CCN)NC(=O)[C@@H](CC(C)C)NC(=O)[C@H](CCCN)NC(=O)[C@H](Cc3ccc(OCC(=O)O)cc3)NC(=O)[C@H](Cc3ccc(-c4ccccc4)cc3)NC(=O)[C@H](Cc3ccc(OCC(=O)O)cc3)NC2=O)c1 [Compound 2205] ({CH2CO}-[aThr]Y(Carboxymethyl)D[Phe(3-Me)]Y(Carboxymethyl)[Bip]Y(Carboxymethyl)[Orn][dL][Dab][Cha][Val(3-OH)]SC[Dab][Aun]-OH; thioether N-14) |
| 9.2 nM | Cc1cccc(C[C@@H]2NC(=O)[C@H](CC(=O)O)NC(=O)[C@H](Cc3ccc(OCC(=O)O)cc3)NC(=O)[C@H](CCCNC(=N)N)NC(=O)CSC[C@@H](C(=O)N[C@@H](CCN)C(=O)NCCCCCCCCCCC(=O)O)NC(=O)[C@H](CCC(=O)O)NC(=O)[C@H](C(C)C)NC(=O)[C@H](CC3CCCCC3)NC(=O)[C@H](CCN)NC(=O)[C@@H](CC(C)C)NC(=O)[C@H](CCCN)NC(=O)[C@H](CCC(N)=O)NC(=O)[C@H](Cc3ccc(-c4ccccc4)cc3)NC(=O)[C@H](C(C)C)NC2=O)c1 [Compound 3384] ({CH2CO}-RY(Carboxymethyl)D[Phe(3-Me)]V[Bip]Q[Orn][dL][Dab][Cha]VEC[Dab][Aun]-OH; thioether N-14) |
| 9.2 nM | CC(C)C[C@H]1NC(=O)[C@H](CCCN)NC(=O)[C@H](C(C)C)NC(=O)[C@H](Cc2ccc(-c3ccccc3)cc2)NC(=O)[C@H](C(C)C)NC(=O)[C@H](Cc2c[nH]c3ccccc23)NC(=O)[C@H](CC(=O)O)NC(=O)[C@H](Cc2ccc(OCC(=O)O)cc2)NC(=O)[C@H](C(C)O)NC(=O)CSC[C@@H](C(=O)N[C@@H](CCN)C(=O)NCCOCCOCC(=O)N[C@@H](CCC(=O)NCCCCCCCCCCC(=O)O)C(=O)O)NC(=O)[C@H](CCN)NC(=O)[C@H](C(C)O)NC(=O)[C@H](CC2CCCCC2)NC(=O)[C@H](CCN)NC1=O (stereo partly drawn) [Compound 3678] ({CH2CO}-[Thr(3ξ)]Y(Carboxymethyl)DWV[Bip]V[Orn][dL][Dab][Cha][Thr(3ξ)][Dab]C[Dab][AEEA][γGlu][Aun]-OH; thioether N-14) |
| 8 nM | CC[C@@H]1NC(=O)CSC[C@@H](C(=O)N[C@@H](CCN)C(=O)NCCCCCCCCCCC(=O)O)NC(=O)[C@H](CO)NC(=O)[C@H](C(C)(C)O)NC(=O)[C@H](CC2CCCCC2)NC(=O)[C@H](CCN)NC(=O)[C@@H](CC(C)C)NC(=O)[C@H](CCCN)NC(=O)[C@H](Cc2ccc(OCC(=O)O)cc2)NC(=O)[C@H](Cc2ccc(-c3ccccc3)cc2)NC(=O)[C@H](Cc2ccc(OCC(=O)O)cc2)NC(=O)[C@H](Cc2cccc(C)c2)NC(=O)[C@H](CC(=O)O)NC(=O)[C@H](Cc2ccc(OCC(=O)O)cc2)NC1=O [Compound 2214] ({CH2CO}-[Abu]Y(Carboxymethyl)D[Phe(3-Me)]Y(Carboxymethyl)[Bip]Y(Carboxymethyl)[Orn][dL][Dab][Cha][Val(3-OH)]SC[Dab][Aun]-OH; thioether N-14) |
